# Values of other authors in patent US12708655B2, “Botanicals as WNT/beta-catenin activators, molecular pathway regulators, tissue regenerators and health biomarker regulators” (Arbor Life Holdings, Ltd., priority 2020, dated 2026).
# Legend:
# [1] = compounds found in Eclipta; NA = Not Applicable; cited from earlier work
# [2] = compounds found in Eclipta; NA = Not Applicable; cited from earlier work; remark: listed apart in the source
Molecule,Anticancer activity (AC) [1],Antioxidant activity (AO) [2]
"O=C(O)c1ccc(O)c(O)c1 [3,4-dihydroxybenzoic acid]",YES,YES
O=C(O)c1ccc(O)cc1 [4-hydroxybenzoic acid],YES,YES
O=c1cc(-c2ccc(O)cc2)oc2cc(O[C@@H]3O[C@H](CO)[C@@H](O)[C@H](O)[C@H]3O)cc(O)c12 [Apigenin-7-O-glucoside],YES,YES
O=c1cc(-c2ccc(O)cc2)oc2cc(O)cc(O)c12 [Apigenin],YES,YES
O=C(/C=C/c1ccc(O)c(O)c1)c1ccc(O)cc1O [Butein],YES,YES
Oc1ccccc1O [Catechol],YES,YES
O=c1cc(-c2ccc(O)c(O)c2)oc2cc(O[C@@H]3O[C@H](CO)[C@@H](O)[C@H](O)[C@H]3O)cc(O)c12 [Cynaroside],YES,YES
O=c1oc2cc(O)cc(O)c2c2oc3cc(O)c(O)cc3c12 [Demethylwedelolactone],YES,YES
O=C(O)c1cc(O)c(O)c(O)c1 [Gallic acid],YES,YES
COC[C@@H]1Cc2cc(OC)c3c(c2[C@H](c2ccc(OC)c(OC)c2)[C@H]1COC)OCO3 [Hypophyllanthin],YES,YES
O=c1cc(-c2ccc(O)c(O)c2)oc2cc(O)cc(O)c12 [Luteolin],YES,YES
O[C@H]1[C@H](O)[C@@H](O)[C@H](O)[C@@H](O)[C@H]1O [Myoinositol],YES,YES
O=C(O)c1cccnc1 [Nicotinic acid],YES,YES
C[C@@H]1O[C@@H](Oc2c(-c3ccc(O)c(O)c3)oc3cc(O)cc(O)c3c2=O)[C@H](O)[C@H](O)[C@H]1O [Quercetin-3-rhamnoside],YES,YES
CC[C@H](/C=C/[C@@H](C)[C@H]1CC[C@H]2[C@@H]3CC=C4C[C@@H](O)CC[C@]4(C)[C@H]3CC[C@]12C)C(C)C [Stigmasterol],YES,YES
COc1cc(O)c2c(c1)oc(=O)c1c3cc(O)c(O)cc3oc21 [Wedelolactone],YES,YES
OCc1ccc(-c2ccc(-c3cccs3)s2)s1 [α-terthienyl methanol],YES,–
CC1(C)CC[C@]2(C)CC[C@]3(C)C(=CC[C@@H]4[C@@]5(C)CC[C@H](O)C(C)(C)[C@@H]5CC[C@]43C)[C@@H]2C1 [β-amyrin],–,YES
CC[C@H](CC[C@@H](C)[C@H]1CC[C@H]2[C@@H]3CC=C4C[C@@H](O)CC[C@]4(C)[C@H]3CC[C@]12C)C(C)C [β-sitosterol],YES,YES
Demethylwedelolactone 7-glucoside,YES,YES
Echinocystic acid,YES,–
